Laboratory results published in PMC6429055, “Synthesis, Photochemical and In Vitro Cytotoxic Evaluation of New Iodinated Aminosquaraines as Potential Sensitizers for Photodynamic Therapy” (Molecules, 2019).
Read-outs that look alike come from different tables or passages of the source. Each block holds one molecule with its values, some of them ahead of it.

Experiments:
[1] = Singlet oxygen formation quantum yield (phosphorescence emission at ~1270 nm vs phenazine standard); format: physicochemical; conditions: In CHCl3, excitation 337 nm
Protocol: The evaluation of the photosensitizing efficiency of the aminosquaraine dyes was performed in chloroform, by determining the singlet oxygen formation quantum yields (ΦΔ). Phenazine was used as standard. The phosphorescence emission of singlet oxygen generated by the sensitizers at approximately 1270 nm is presented in Figure 2 and the determined quantum yields are summarized in Table 1.
These ΦΔ values were obtained by a simple comparison of the integrated areas determined for the standard and samples, using the same OD at the excitation wavelength. For each determination an average of 100 phosphorescence spectra were used. […] As previously reported, the amino group in the squaric ring enhances singlet oxygen generation efficiency when compared with the unsubstituted zwitterionic dye 3. […] This is related with the intramolecular charge transfer (ICT) mechanism which provides a non-radiative deactivation pathway, therefore decreasing the singlet oxygen formation quantum yields ([44] and references therein).
The singlet oxygen measurement set-up was assembled in our laboratory as previously described. As an excitation source we used a nitrogen laser, excitation wavelength = 337 nm. The detector was an InGaAs CCD (model i-Dus from Andor Technology Limited, Belfast, UK) working at low temperature (−60 °C) coupled to a fixed spectrograph, model Shamrock 163i, also from Andor. Phenazine (standard) was used at O.D. = 0.6 in chloroform. The ΦΔ values were obtained by comparing the total area of the emission spectra for the reference and for each dye under study in the same solvent, with the same optical density at the excitation wavelength. […].

[2] = Fluorescence quantum yield; format: physicochemical; conditions: In CHCl3
Text: As expected, due to the covalent link between iodine and the aminosquaraine, a strong heavy atom effect can be observed in all cases. This effect is emphasized in the case of the bis(hydroxyethyl)amino substituent group (dye 5c).

[3] = SRB cytotoxicity in non-tumor porcine liver primary cell culture, dark and after irradiation; format: cell-based; conditions: pig, PLP2 porcine liver primary cell culture (non-tumor), non-tumor cells, mean ± SD
Protocol: (§1) Stock solutions of the aminosquaraines 5a–e with different concentrations (0.0375 μM, 0.15 μM, 0.6 μM, 6 μM, 12 μM, 25 μM, 50 μM, 500 μM) were prepared using a solution of 3% DMSO in DMEM and kept at−20 °C. Prior to the in vitro assays diluted solutions were prepared with the same solvent to obtain solutions with final concentrations of 0.03 μM, 0.3 μM, 0.6 μM, 1.25 μM, 2.5 μM and 25 μM.
(§2) The cytotoxicity of the squaraine dyes was tested in the dark and under irradiation. For irradiation of the cells a halogen/tungsten lamp (24 V and 250 W, Osram, Carnaxide, Portugal) was used with a fluence rate of […] (measured with an ILT 1400-A radiometer equipped with a SEL033 detector, ILT, Peabody, MA, USA). The cells were irradiated continuously for 30 min. A 3% aqueous solution of K2Cr2O7 was placed between the lamp and the cells as a liquid cut off filter to remove light of wavelength shorter than ~500 nm. The temperature to which the cells were exposed was carefully monitored to guarantee cell viability.
A cell culture was prepared from a freshly harvested porcine liver obtained from a local slaughter house, and it was designed as PLP2. Briefly, the liver tissues were rinsed in Hank’s balanced salt solution containing 100 U/mL penicillin and 100 µg/mL streptomycin and divided into 1×1 mm^3 explants to ensure that all liver cells were able to access the nutrients provided by the medium. Some of these explants were placed in 25 cm^2 tissue flasks in DMEM medium supplemented with 10% fetal bovine serum, 2 mM non-essential amino acids and 100 U/mL penicillin, […] streptomycin and incubated at 37 °C with a humidified atmosphere containing 5% CO2. The medium was changed every two days. Cultivation of the cells was continued with direct monitoring every two or three days using a phase contrast microscope. Before confluence was reached, cells were subcultured and plated in 96-well plates at a density of 1.0 × 10^4 cells/well, and cultivated in DMEM medium with 10% FBS, 100 U/mL penicillin and 100 µg/mL streptomycin [47]. The PLP2 cells were incubated with the squaraine dyes and submitted to the two independent processes—dark and irradiation—as described earlier for the human tumor cell lines. The SRB assay was performed according to the procedure previously described. The results were expressed in GI50 values. All the assays were performed in duplicate. Ellipticine was used as standard.

[4] = test system: HeLa (cervical carcinoma); assay: SRB cytotoxicity, dark and after irradiation (photodynamic treatment); format: cell-based; conditions: Homo sapiens, mean ± SD
Protocol: as §1, §2
(§3) Four human tumor cell lines were used: MCF-7 (breast adenocarcinoma), NCI-H460 (non-small cell lung carcinoma), HeLa (cervical carcinoma) and HepG2 (hepatocellular carcinoma) from DSMZ (Leibniz-Institut DSMZ-Deutsche Sammlung von Mikroorganismen und Zellkulturen GmbH, Mönchengladbach, Germany). Cells were routinely maintained as adherent cell cultures in RPMI-1640 medium containing 10% heat-inactivated FBS and 2 mM glutamine at […], in a humidified air incubator containing 5% CO2. Each cell line was plated at an appropriate density (7.5 × 10^3 cells/well for MCF-7 and NCI-H460, and 1.0 × 10^4 cells/well for HeLa and HepG2) in 96-well plates, allowed to attach for 24 h and then treated with different concentrations of each squaraine dye. Controls were set with the cells in the absence of the dyes in 3% DMSO in DMEM and in the growth medium only. After the incubation step (24 h), the cells were submitted to the photodynamic treatment for 30 min. Controls in the absence of light were performed on every test. Neither DMSO alone, nor light alone, nor the combination of both induced toxicity on the cells. Then, the growth medium was changed and the cells were incubated for further 24 h. Following this incubation period, the adherent cells were fixed by adding cold 10% TCA (100 µL) and incubated for 60 min at 4 °C. Plates were then washed with deionized water and subsequently dried. SRB solution (0.1% in 1% acetic acid, 100 µL) was then added to each plate well and incubated for 30 min at room temperature. Unbound SRB was removed by washing with 1% acetic acid. Plates were air dried, the bound SRB was solubilized with 10 mM Tris (200 µL) and the absorbance was measured at 540 nm in an ELX800 Microplate Reader (Bio-Tek Instruments Inc., Winooski, VT, USA). The results were expressed in GI50 values, which correspond to the concentration of dye that causes 50% inhibition of cell growth. All the assays were performed in duplicate. Ellipticine was used as standard.

[5] = test system: NCI-H460 (non-small cell lung carcinoma); assay: as above; format: cell-based; conditions: Homo sapiens, mean ± SD
Protocol: as §1, §2, §3

[6] = test system: MCF-7 (breast adenocarcinoma); assay: as above; format: cell-based; conditions: Homo sapiens, mean ± SD
Protocol: as §1, §2, §3

[7] = test system: HepG2 (hepatocellular carcinoma); assay: as above; format: cell-based; conditions: Homo sapiens, mean ± SD
Protocol: as §1, §2, §3

[8] = test system: HeLa, HepG2, MCF-7 and NCI-H460 cell lines; assay: SRB growth inhibition across the human tumor cell line panel, dark vs irradiation (text summaries); format: cell-based; conditions: for GI50: Homo sapiens; for Difference between growth inhibition percentages upon illumination and in the dark: dye 0.3 μM, range over the cell lines
Protocol: In this representative example, the growth inhibition in the dark was less than 20% in more than 75% of the assays.
as §1, §2, §3

[9] = light or radiation study, 0.5 h, Irradiated 30 min, halogen/tungsten lamp >500 nm
[10] = NCI-H460, light or radiation study, 0.5 h, Irradiated 30 min, halogen/tungsten lamp >500 nm
[11] = MCF7, light or radiation study, 0.5 h, Irradiated 30 min, halogen/tungsten lamp >500 nm
[12] = HepG2, light or radiation study, 0.5 h, Irradiated 30 min, halogen/tungsten lamp >500 nm
[13] = light or radiation study, irradiated, range over cell lines, stated jointly for 5a and 5b, read-out: GI50 upon illumination, range over all the cell lines tested

melting point: > 300 °C
Φ∆ (singlet oxygen generation quantum yield) [1]: 0.05
ΦF (fluorescence quantum yield) [2]: 0.03
Compound: CCN1C(=CC2=C([O-])C(=Cc3sc4cc(I)ccc4[n+]3CC)C2=O)Sc2cc(I)ccc21 [Dye 3, 4-[(3-Ethyl-6-iodobenzothiazol-3-ium-2-yl)methylidene]-2-[(3-ethyl-6-iodo-3H-benzothiazol-2-ylidene)methyl]-3-oxocyclobut-1-en-1-olate]

Compound: CCN1C(=CC2=C(N)C(=Cc3sc4cc(I)ccc4[n+]3CC)C2=O)Sc2cc(I)ccc21.[I-] [Dye 5a, 2-[2-Amino-3-(3-ethyl-6-iodo-3H-benzothiazol-2-ylidenemethyl)-4-oxocyclobut-2-enylidenemethyl]-3-ethyl-6-iodobenzothiazol-3-ium iodide]
melting point: > 300 °C
Φ∆ (singlet oxygen generation quantum yield) [1]: 0.22
GI50 ([3]; Dark): 17500 ± 100 nM
GI50 ([3]; Irradiated 30 min): 2000 ± 100 nM
GI50 ([4]; Dark): 2540 ± 20 nM
GI50 [4, 9]: 4 ± 0.1 nM
GI50 [5, 10]: 190 ± 20 nM
GI50 ([5]; NCI-H460, Dark): 15300 ± 800 nM
GI50 [6, 11]: 10 ± 1 nM
GI50 ([6]; MCF7, Dark): 15000 ± 1000 nM
GI50 [7, 12]: 80 ± 1 nM
GI50 ([7]; HepG2, Dark): 20000 ± 2000 nM
GI50 [8, 13]: 4 to 190 nM
Difference between growth inhibition percentages upon illumination and in the dark [8]: 46–68%
ΦF (fluorescence quantum yield) [2]: 0.02

Compound: CCN1C(=CC2=C(NC)C(=Cc3sc4cc(I)ccc4[n+]3CC)C2=O)Sc2cc(I)ccc21.[I-] [Dye 5b, 3-Ethyl-2-[3-(3-ethyl-6-iodo-3H-benzothiazol-2-ylidenemethyl)-2-(methylamino)-4-oxocyclobut-2-enylidenemethyl]-6-iodobenzothiazol-3-ium iodide]
melting point: > 300 °C
Φ∆ (singlet oxygen generation quantum yield) [1]: 0.26
GI50 ([3]; Dark): 5700 ± 600 nM
GI50 ([3]; Irradiated 30 min): 30 ± 1 nM
GI50 ([4]; Dark): 1200 ± 100 nM
GI50 [4, 9]: 11 ± 10 nM
GI50 [5, 10]: 180 ± 70 nM
GI50 ([5]; NCI-H460, Dark): 8100 ± 900 nM
GI50 [6, 11]: 10 ± 1 nM
GI50 ([6]; MCF7, Dark): 10000 ± 700 nM
GI50 [7, 12]: 60 ± 1 nM
GI50 ([7]; HepG2, Dark): 15000 ± 2000 nM
GI50 [8, 13]: 4 to 190 nM
Difference between growth inhibition percentages upon illumination and in the dark [8]: 43–73%
ΦF (fluorescence quantum yield) [2]: 0.03

Compound: CCN1C(=CC2=C(N(CCO)CCO)C(=Cc3sc4cc(I)ccc4[n+]3CC)C2=O)Sc2cc(I)ccc21.[I-] [Dye 5c, 3-Ethyl-2-{3-(3-ethyl-6-iodo-3H-benzothiazol-2-ylidenemethyl)-2-[bis(2-hydroxy-ethyl)amino]-4-oxocyclobut-2-enylidenemethyl}-6-iodobenzothiazol-3-ium iodide]
melting point: > 300 °C
Φ∆ (singlet oxygen generation quantum yield) [1]: 0.09
GI50 ([3]; Dark): 22000 ± 900 nM
GI50 ([3]; Irradiated 30 min): 440 ± 10 nM
GI50 ([4]; Dark): 2000 ± 100 nM
GI50 [4, 9]: 310 ± 30 nM
GI50 [5, 10]: 980 ± 40 nM
GI50 ([5]; NCI-H460, Dark): 23000 ± 2000 nM
GI50 [6, 11]: 420 ± 60 nM
GI50 ([6]; MCF7, Dark): > 25000 nM
GI50 [7, 12]: 260 ± 30 nM
GI50 ([7]; HepG2, Dark): 23000 ± 2000 nM
ΦF (fluorescence quantum yield) [2]: 0.01

Compound: CCN1C(=CC2=C(NCCO)C(=Cc3sc4cc(I)ccc4[n+]3CC)C2=O)Sc2cc(I)ccc21.[I-] [Dye 5d, 3-Ethyl-2-{3-(3-ethyl-6-iodo-3H-benzothiazol-2-ylidenemethyl)-2-[(2-hydroxy-ethyl)amino]-4-oxocyclobut-2-enylidenemethyl}-6-iodobenzothiazol-3-ium iodide]
melting point: > 300 °C
Φ∆ (singlet oxygen generation quantum yield) [1]: 0.19
GI50 ([3]; Dark): > 25000 nM
GI50 ([3]; Irradiated 30 min): 980 ± 20 nM
GI50 ([4]; Dark): 1800 ± 100 nM
GI50 [4, 9]: 190 ± 10 nM
GI50 [5, 10]: 890 ± 10 nM
GI50 ([5]; NCI-H460, Dark): > 25000 nM
GI50 [6, 11]: 250 ± 40 nM
GI50 ([6]; MCF7, Dark): > 25000 nM
GI50 [7, 12]: 380 ± 30 nM
GI50 ([7]; HepG2, Dark): > 25000 nM
GI50 ([8]; HeLa, dark, inactive within the range of concentrations used, read-out: GI50 in the dark, all cell lines with exception of HeLa): > 25000 nM
ΦF (fluorescence quantum yield) [2]: 0.11

Compound: CCN1C(=CC2=C(N(C)CCO)C(=Cc3sc4cc(I)ccc4[n+]3CC)C2=O)Sc2cc(I)ccc21.[I-] [Dye 5e, 3-Ethyl-2-{3-(3-ethyl-6-iodo-3H-benzothiazol-2-ylidenemethyl)-2-[(2-hydroxy-ethyl)methylamino]-4-oxocyclobut-2-enylidenemethyl}-6-iodobenzothiazol-3-ium iodide]
melting point: > 300 °C
Φ∆ (singlet oxygen generation quantum yield) [1]: 0.16
GI50 ([3]; Dark): 11900 ± 200 nM
GI50 ([3]; Irradiated 30 min): 420 ± 10 nM
GI50 ([4]; Dark): 2100 ± 200 nM
GI50 [4, 9]: 190 ± 20 nM
GI50 [5, 10]: 240 ± 30 nM
GI50 ([5]; NCI-H460, Dark): 13000 ± 1000 nM
GI50 [6, 11]: 230 ± 20 nM
GI50 ([6]; MCF7, Dark): 9600 ± 200 nM
GI50 [7, 12]: 190 ± 10 nM
GI50 ([7]; HepG2, Dark): 11400 ± 900 nM
ΦF (fluorescence quantum yield) [2]: 0.09
